Experiments:
[1] = test system: Candida albicans; test: Agar diffusion method, fungicidal activity; type: cell-based; settings: 28° C., 72 hours; controls 100 μg/ml
Protocol: (§1) This activity was determined using the agar diffusion method (Manual of Clinical Microbiology. 6th ed. Washington, DC: ASM; 1995). The effectiveness of the different suspensions was assayed against Gram positive bacteria (Bacillus subtilis, Staphylococcus aureus), Gram negative bacteria (E. coli, Proteus mirabilis), and against fungi (Candida albicans, Aspergillus niger) using the technique of wells in nutrient agar plates. These microorganisms were identified and provided by the microorganism collection BCCM/LMG (Belgium). Bacteria were grown overnight at 37° C. in Tryptone Soy Broth (Oxoid), and fungi were incubated for 72 hours at 28° C. in Sabouraud Dextrose Broth (Oxoid). These suspensions were used as inocula. A final inoculum, using 100 μl of a suspension containing 10^8 colony forming units/ml of bacteria, or 10^4 spores/ml of fungus, was spread on Tryptone Soy Agar and Sabouraud Dextrose Agar (Oxoid) plates, respectively. The disk (6 mm in diameter) was impregnated with each of the different vesicle suspensions to be tested. […] Assay plates were incubated at 37° C. for 24 hours for bacteria, and 28° C. during 72 hours for fungi, depending on the incubation time required for visible growth.

[2] = test system: Aspergillus niger; test: Agar diffusion method, fungicidal activity; type: cell-based; settings: 28° C., 72 hours; controls 100 μg/ml
Protocol: as §1

[3] = cholesterol:CTAB vesicles, DELOS-SUSP; cited from earlier work

Compound | Fungicidal activity (Inhibition zone) C. albicans [1] | Fungicidal activity (Inhibition zone) A. niger [2] | gentamicin encapsulation [3]
OC(Cn1cncn1)(Cn1cncn1)c1ccc(F)cc1F [Fluconazole, fluconazole] | 22 mm | 21 mm | –
gentamicin | – | – | < 2%

Reference: patent publication US11510965B2, “Vesicles comprising epidermal growth factor and compositions thereof” (Centro de Ingeniería Genética y Biotecnología, priority 2012, dated 2022)
